Source: patent US9587005B2 (priority 2010, dated 2017)
Read-outs that look alike come from different tables or passages of the source. *1 amine or outer side, *2 acyl side, *3 side chain or, on linkers, in order; H or OH if unused. Where a SMILES comes first, the peptide text is derived from it. Side-chain parts run from the residue outwards. [ ]: non-standard residue; d: D form. The star is where a group is joined. X5 = CCCCCCCCCCCCCCCC(=O)N[C@@H](CCC(=O)NCCCC[C@H](NC(=O)CC[C@H](NC(=O)CCCCCCCCCCCCCCC)C(=O)O)C(=O)*)C(=O)O; Phe(4-NH2) = Nc1ccc(C[C@H](N)C(=O)O)cc1; γGlu = O=C(O)[C@H](CCC(=O)[*:2])N[*:1]; Palmitoyl = CCCCCCCCCCCCCCCC(=O)*; Aib = CC(C)(N)C(=O)O

Columns and labels:
Type in all cases: cell-based
[1] = molecular target: T1, GLP-1 receptor (Homo sapiens, UniProt P43220); experiment: cAMP induction, firefly luciferase reporter assay in HEK293 cells co-transfected with GLP-1 receptor
T1 construct: expressed in transfected cells; host or cells: HEK293
Source text: (§1) This example describes an exemplary method of testing the biological activity of the peptides of the present disclosures, which method involves assaying cAMP synthesis.

[2] = molecular target: T2, GIP receptor (Homo sapiens, UniProt P48546); experiment: cAMP induction, firefly luciferase reporter assay in HEK293 cells co-transfected with GIP receptor
T2 sequence (P48546 22-466): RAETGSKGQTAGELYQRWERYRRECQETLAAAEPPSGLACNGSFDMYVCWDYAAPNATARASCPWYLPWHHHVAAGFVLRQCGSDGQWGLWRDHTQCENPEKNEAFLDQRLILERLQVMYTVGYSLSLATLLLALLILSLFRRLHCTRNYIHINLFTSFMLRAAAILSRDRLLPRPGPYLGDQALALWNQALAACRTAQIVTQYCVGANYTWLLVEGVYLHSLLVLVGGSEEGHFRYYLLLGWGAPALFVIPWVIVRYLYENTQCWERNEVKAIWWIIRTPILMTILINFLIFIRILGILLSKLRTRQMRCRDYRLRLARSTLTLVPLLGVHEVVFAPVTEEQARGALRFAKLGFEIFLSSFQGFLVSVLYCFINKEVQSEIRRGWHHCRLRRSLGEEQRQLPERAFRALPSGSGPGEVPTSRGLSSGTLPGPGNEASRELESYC

[3] = molecular target: T3, glucagon receptor (Homo sapiens, UniProt P47871); experiment: cAMP induction, firefly luciferase reporter assay in HEK293 cells co-transfected with glucagon receptor
T3 construct: expressed in transfected cells; host or cells: HEK293
Source text: as §1

[4] = GLP-1 Receptor EC50, Table 10, Example 16
[5] = Table 10, Example 16, read-out: GIP-1 Receptor EC50
[6] = Glucagon Receptor EC50, Table 10, Example 16
[7] = Table 12, Example 19, read-out: EC50 (cAMP, nmole) GLPR
[8] = Table 12, Example 19, read-out: EC50 (cAMP, nmole) GCGR

T1 sequence (P43220 24-463): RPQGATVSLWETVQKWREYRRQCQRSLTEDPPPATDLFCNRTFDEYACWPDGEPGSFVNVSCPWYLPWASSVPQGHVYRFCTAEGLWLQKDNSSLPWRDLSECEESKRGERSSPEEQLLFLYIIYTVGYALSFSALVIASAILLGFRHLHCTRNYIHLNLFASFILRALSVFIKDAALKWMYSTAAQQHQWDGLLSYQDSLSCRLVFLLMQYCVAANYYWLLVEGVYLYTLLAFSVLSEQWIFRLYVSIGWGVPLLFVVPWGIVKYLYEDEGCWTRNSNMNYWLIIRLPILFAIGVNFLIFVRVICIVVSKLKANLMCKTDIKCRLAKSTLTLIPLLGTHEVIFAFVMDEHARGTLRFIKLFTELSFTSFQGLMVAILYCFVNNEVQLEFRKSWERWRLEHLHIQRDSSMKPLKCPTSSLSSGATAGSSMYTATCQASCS
T3 sequence (P47871 26-477): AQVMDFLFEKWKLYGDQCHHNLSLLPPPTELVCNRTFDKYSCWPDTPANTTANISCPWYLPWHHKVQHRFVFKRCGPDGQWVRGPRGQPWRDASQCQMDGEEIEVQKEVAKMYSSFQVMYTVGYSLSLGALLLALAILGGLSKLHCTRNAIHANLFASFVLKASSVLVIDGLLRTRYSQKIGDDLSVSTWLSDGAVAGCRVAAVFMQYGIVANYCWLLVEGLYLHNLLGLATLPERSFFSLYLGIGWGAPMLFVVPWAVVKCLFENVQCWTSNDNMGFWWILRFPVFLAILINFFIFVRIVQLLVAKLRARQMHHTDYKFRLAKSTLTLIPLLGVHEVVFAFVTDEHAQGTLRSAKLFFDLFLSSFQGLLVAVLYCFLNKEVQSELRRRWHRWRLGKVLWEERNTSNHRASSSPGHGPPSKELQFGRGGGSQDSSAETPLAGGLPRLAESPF

SMILES	EC50 [1, 4] [nM]	EC50 [2, 5] [nM]	EC50 [3, 6] [nM]	EC50 [1, 7] [nM]	EC50 [3, 8] [nM]	other results
CCCCCCCCCCCCCCCC(=O)N[C@@H](CCC(=O)Nc1ccc(C[C@H](NC(=O)[C@@H](NC(=O)CNC(=O)[C@H](CCC(N)=O)NC(=O)C(C)(C)NC(=O)[C@@H](N)Cc2c[nH]cn2)[C@@H](C)O)C(=O)N[C@H](C(=O)N[C@@H](CO)C(=O)N[C@@H](CC(=O)O)C(=O)N[C@@H](Cc2ccc(O)cc2)C(=O)N[C@@H](CO)C(=O)N[C@@H](CCCCN)C(=O)N[C@@H](Cc2ccc(O)cc2)C(=O)N[C@@H](CC(C)C)C(=O)N[C@@H](CC(=O)O)C(=O)N[C@@H](CCC(=O)O)C(=O)N[C@@H](CCCNC(=N)N)C(=O)N[C@@H](C)C(=O)N[C@@H](C)C(=O)N[C@@H](CCC(N)=O)C(=O)N[C@@H](CC(=O)O)C(=O)N[C@@H](Cc2ccccc2)C(=O)N[C@H](C(=O)N[C@@H](CCC(N)=O)C(=O)N[C@@H](Cc2c[nH]c3ccccc23)C(=O)N[C@@H](CC(C)C)C(=O)N[C@@H](CC(C)C)C(=O)N[C@@H](CC(=O)O)C(=O)NCC(=O)NCC(=O)N2CCC[C@H]2C(=O)N[C@@H](CO)C(=O)N[C@@H](CO)C(=O)NCC(=O)N[C@@H](C)C(=O)N2CCC[C@H]2C(=O)N2CCC[C@H]2C(=O)N2CCC[C@H]2C(=O)N[C@@H](CO)C(N)=O)C(C)C)[C@@H](C)O)cc1)C(=O)O [SEQ ID NO: 147] (H-H[Aib]QGT[Phe(4-NH2)]([γGlu-Palmitoyl])TSDYSKYLDERAAQDFVQWLLDGGPSSGAPPPS-NH2; N-terminus assumed)	0.004	3.13	0.246	–	–	–
CCCCCCCCCCCCCCCCC(CC(=O)Nc1ccc(C[C@H](NC(=O)[C@H](CC(=O)O)NC(=O)[C@H](CO)NC(=O)[C@@H](NC(=O)[C@H](Cc2ccccc2)NC(=O)[C@@H](NC(=O)CNC(=O)[C@H](CCC(N)=O)NC(=O)C(C)(C)NC(=O)[C@@H](N)Cc2c[nH]cn2)[C@@H](C)O)[C@@H](C)O)C(=O)N[C@@H](CO)C(=O)N[C@@H](CCCCN)C(=O)N[C@@H](Cc2ccc(O)cc2)C(=O)N[C@@H](CC(C)C)C(=O)N[C@@H](CC(=O)O)C(=O)N[C@@H](CCC(=O)O)C(=O)N[C@@H](CCCNC(=N)N)C(=O)N[C@@H](C)C(=O)N[C@@H](C)C(=O)N[C@@H](CCC(N)=O)C(=O)N[C@@H](CC(=O)O)C(=O)N[C@@H](Cc2ccccc2)C(=O)N[C@H](C(=O)N[C@@H](CCC(N)=O)C(=O)N[C@@H](Cc2c[nH]c3ccccc23)C(=O)N[C@@H](CC(C)C)C(=O)N[C@@H](CC(C)C)C(=O)N[C@@H](CC(=O)O)C(=O)NCC(=O)NCC(=O)N2CCC[C@H]2C(=O)N[C@@H](CO)C(=O)N[C@@H](CO)C(=O)NCC(=O)N[C@@H](C)C(=O)N2CCC[C@H]2C(=O)N2CCC[C@H]2C(=O)N2CCC[C@H]2C(=O)N[C@@H](CO)C(N)=O)C(C)C)cc1)C(=O)O (stereo partly drawn) [SEQ ID NO: 150]	–	–	–	–	–	EC50 [1]: 0.004 nM; EC50 [2]: 0.141 nM; EC50 [3]: 0.006 nM
CCCCCCCCCCCCCCCC(=O)N[C@@H](CCC(=O)NCCCC[C@H](NC(=O)[C@H](CCCCN)NC(=O)[C@H](CO)NC(=O)[C@H](Cc1ccc(O)cc1)NC(=O)[C@H](CC(=O)O)NC(=O)[C@H](CO)NC(=O)[C@@H](NC(=O)[C@H](Cc1ccccc1)NC(=O)[C@@H](NC(=O)CNC(=O)[C@H](CCC(N)=O)NC(=O)C(C)(C)NC(=O)[C@@H](N)Cc1c[nH]cn1)[C@@H](C)O)[C@@H](C)O)C(=O)N[C@@H](CC(C)C)C(=O)N[C@@H](CC(=O)O)C(=O)N[C@@H](CCC(=O)O)C(=O)N[C@@H](CCCNC(=N)N)C(=O)N[C@@H](C)C(=O)N[C@@H](C)C(=O)N[C@@H](CCC(N)=O)C(=O)N[C@@H](CC(=O)O)C(=O)N[C@@H](Cc1ccccc1)C(=O)N[C@H](C(=O)N[C@@H](CCC(N)=O)C(=O)N[C@@H](Cc1c[nH]c2ccccc12)C(=O)N[C@@H](CC(C)C)C(=O)N[C@@H](CC(C)C)C(=O)N[C@@H](CC(=O)O)C(=O)NCC(=O)NCC(=O)N1CCC[C@H]1C(=O)N[C@@H](CO)C(=O)N[C@@H](CO)C(=O)NCC(=O)N[C@@H](C)C(=O)N1CCC[C@H]1C(=O)N1CCC[C@H]1C(=O)N1CCC[C@H]1C(=O)N[C@@H](CO)C(N)=O)C(C)C)C(=O)O [SEQ ID NO: 151] (H-H[Aib]QGTFTSDYSKK([γGlu-Palmitoyl])LDERAAQDFVQWLLDGGPSSGAPPPS-NH2)	0.004	0.309	0.008	–	–	–
CCCCCCCCCCCCCCCC(=O)N[C@@H](CCC(=O)NCCCC[C@H](NC(=O)[C@H](CC(=O)O)NC(=O)[C@H](CC(C)C)NC(=O)[C@H](Cc1ccc(O)cc1)NC(=O)[C@H](CCCCN)NC(=O)[C@H](CO)NC(=O)[C@H](Cc1ccc(O)cc1)NC(=O)[C@H](CC(=O)O)NC(=O)[C@H](CO)NC(=O)[C@@H](NC(=O)[C@H](Cc1ccccc1)NC(=O)[C@@H](NC(=O)CNC(=O)[C@H](CCC(N)=O)NC(=O)C(C)(C)NC(=O)[C@@H](N)Cc1c[nH]cn1)[C@@H](C)O)[C@@H](C)O)C(=O)N[C@@H](CCCNC(=N)N)C(=O)N[C@@H](C)C(=O)N[C@@H](C)C(=O)N[C@@H](CCC(N)=O)C(=O)N[C@@H](CC(=O)O)C(=O)N[C@@H](Cc1ccccc1)C(=O)N[C@H](C(=O)N[C@@H](CCC(N)=O)C(=O)N[C@@H](Cc1c[nH]c2ccccc12)C(=O)N[C@@H](CC(C)C)C(=O)N[C@@H](CC(C)C)C(=O)N[C@@H](CC(=O)O)C(=O)NCC(=O)NCC(=O)N1CCC[C@H]1C(=O)N[C@@H](CO)C(=O)N[C@@H](CO)C(=O)NCC(=O)N[C@@H](C)C(=O)N1CCC[C@H]1C(=O)N1CCC[C@H]1C(=O)N1CCC[C@H]1C(=O)N[C@@H](CO)C(N)=O)C(C)C)C(=O)O [SEQ ID NO: 153] (H-H[Aib]QGTFTSDYSKYLDK([γGlu-Palmitoyl])RAAQDFVQWLLDGGPSSGAPPPS-NH2; N-terminus assumed)	0.007	0.276	0.012	–	–	–
CCCCCCCCCCCCCCCC(=O)N[C@@H](CCC(=O)NCCCC[C@H](NC(=O)CC[C@H](NC(=O)CCCCCCCCCCCCCCC)C(=O)O)C(=O)NCCCC[C@H](NC(=O)[C@H](CC(=O)O)NC(=O)[C@H](CO)NC(=O)[C@@H](NC(=O)[C@H](Cc1ccccc1)NC(=O)[C@@H](NC(=O)CNC(=O)[C@H](CCC(N)=O)NC(=O)C(C)(C)NC(=O)[C@@H](N)Cc1c[nH]cn1)[C@@H](C)O)[C@@H](C)O)C(=O)N[C@@H](CO)C(=O)N[C@@H](CCCCN)C(=O)N[C@@H](Cc1ccc(O)cc1)C(=O)N[C@@H](CC(C)C)C(=O)N[C@@H](CC(=O)O)C(=O)N[C@@H](CCC(=O)O)C(=O)N[C@@H](CCCNC(=N)N)C(=O)N[C@@H](C)C(=O)N[C@@H](C)C(=O)N[C@@H](CCC(N)=O)C(=O)N[C@@H](CC(=O)O)C(=O)N[C@@H](Cc1ccccc1)C(=O)N[C@H](C(=O)N[C@@H](CCC(N)=O)C(=O)N[C@@H](Cc1c[nH]c2ccccc12)C(=O)N[C@@H](CC(C)C)C(=O)N[C@@H](CC(C)C)C(=O)N[C@@H](CC(=O)O)C(=O)NCC(=O)NCC(=O)N1CCC[C@H]1C(=O)N[C@@H](CO)C(=O)N[C@@H](CO)C(=O)NCC(=O)N[C@@H](C)C(=O)N1CCC[C@H]1C(=O)N1CCC[C@H]1C(=O)N1CCC[C@H]1C(=O)N[C@@H](CO)C(N)=O)C(C)C)C(=O)O [SEQ ID NO: 160]	–	–	–	0.007	0.024	EC50 ([2]; Table 12, Example 19, read-out: EC50 (cAMP, nmole) GIPR): 0.015 nM
CCCCCCCCCCCCCCCC(=O)N[C@@H](CCC(=O)NCCCC[C@H](NC(=O)CC[C@H](NC(=O)CCCCCCCCCCCCCCC)C(=O)O)C(=O)NCCCC[C@H](NC(=O)[C@H](CO)NC(=O)[C@@H]1CCCN1C(=O)[C@@H]1CCCN1C(=O)[C@@H]1CCCN1C(=O)[C@H](C)NC(=O)CNC(=O)[C@H](CO)NC(=O)[C@H](CO)NC(=O)[C@@H]1CCCN1C(=O)CNC(=O)CNC(=O)[C@H](CC(=O)O)NC(=O)[C@H](CC(C)C)NC(=O)[C@H](CC(C)C)NC(=O)[C@H](Cc1c[nH]c2ccccc12)NC(=O)[C@H](CCC(N)=O)NC(=O)[C@@H](NC(=O)[C@H](Cc1ccccc1)NC(=O)[C@H](CC(=O)O)NC(=O)[C@H](CCC(N)=O)NC(=O)[C@H](C)NC(=O)[C@H](C)NC(=O)[C@H](CCCNC(=N)N)NC(=O)[C@H](CCC(=O)O)NC(=O)[C@H](CC(=O)O)NC(=O)[C@H](CC(C)C)NC(=O)[C@H](Cc1ccc(O)cc1)NC(=O)[C@H](CCCCN)NC(=O)[C@H](CO)NC(=O)[C@H](Cc1ccc(O)cc1)NC(=O)[C@H](CC(=O)O)NC(=O)[C@H](CO)NC(=O)[C@@H](NC(=O)[C@H](Cc1ccccc1)NC(=O)[C@@H](NC(=O)CNC(=O)[C@H](CCC(N)=O)NC(=O)C(C)(C)NC(=O)[C@@H](N)Cc1c[nH]cn1)[C@@H](C)O)[C@@H](C)O)C(C)C)C(N)=O)C(=O)O [SEQ ID NO: 161] (H-H[Aib]QGTFTSDYSKYLDERAAQDFVQWLLDGGPSSGAPPPSK(X5)-NH2)	–	–	–	0.007	0.011	EC50 ([2]; EC50 (cAMP, nmole) GIPR, Table 12, Example 19): 0.01 nM
